Experiments:
Assay in all cases: relative viability (nuclei count vs DMSO), 5 days (fraction); higher = more cells survive
Crizotinib + Decitabine = compound: C[C@@H](Oc1cc(-c2cnn(C3CCNCC3)c2)cnc1N)c1c(Cl)ccc(F)c1Cl [Crizotinib] + Nc1ncn([C@H]2C[C@H](O)[C@@H](CO)O2)c(=O)n1 [Decitabine] (partner 2 µM)
In short: (§1)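 The day after seeding in 1536-well plates, lung cancer cell lines were treated by pin tool with a single drug, or with a fixed anchor-drug dose together with five library-drug doses (not always all listed) in √10 steps. After 5 days, a combined fix-and-stain solution (final 0.05% Triton X-100, 1% formaldehyde, 1 ug/ml Hoechst) was added. Nuclei counted on 4× images gave relative viability as treated counts over vehicle counts, reported as the median of duplicate plates.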

Carfilzomib + Linsitinib = compound: CC(C)C[C@H](NC(=O)[C@H](CCc1ccccc1)NC(=O)CN1CCOCC1)C(=O)N[C@@H](Cc1ccccc1)C(=O)N[C@@H](CC(C)C)C(=O)[C@@]1(C)CO1 [Carfilzomib] + C[C@]1(O)C[C@@H](c2nc(-c3ccc4ccc(-c5ccccc5)nc4c3)c3c(N)nccn32)C1 [Linsitinib] (partner 1 µM)
In short: as §1

Carfilzomib + Luminespib = compound: CC(C)C[C@H](NC(=O)[C@H](CCc1ccccc1)NC(=O)CN1CCOCC1)C(=O)N[C@@H](Cc1ccccc1)C(=O)N[C@@H](CC(C)C)C(=O)[C@@]1(C)CO1 [Carfilzomib] + CCNC(=O)c1noc(-c2cc(C(C)C)c(O)cc2O)c1-c1ccc(CN2CCOCC2)cc1 [Luminespib] (partner 0.01 µM)
In short: as §1

Crizotinib + Palbociclib = compound: C[C@@H](Oc1cc(-c2cnn(C3CCNCC3)c2)cnc1N)c1c(Cl)ccc(F)c1Cl [Crizotinib] + CC(=O)c1c(C)c2cnc(Nc3ccc(N4CCNCC4)cn3)nc2n(C2CCCC2)c1=O [Palbociclib] (partner 0.5 µM)
In short: as §1

Cell Line | relative viability (Crizotinib + Decitabine; first compound 0.01 µM) | relative viability (Crizotinib + Decitabine; first compound 0.03162 µM) | relative viability (Crizotinib + Decitabine; first compound 0.1 µM) | relative viability (Crizotinib + Decitabine; first compound 0.3162 µM) | relative viability (Crizotinib + Decitabine; first compound 1 µM) | relative viability (Carfilzomib + Linsitinib; first compound 0.001 µM) | relative viability (Carfilzomib + Linsitinib; first compound 0.003162 µM) | relative viability (Carfilzomib + Linsitinib; first compound 0.01 µM) | relative viability (Carfilzomib + Linsitinib; first compound 0.03162 µM) | relative viability (Carfilzomib + Linsitinib; first compound 0.1 µM) | relative viability (Carfilzomib + Luminespib; first compound 0.001 µM) | relative viability (Carfilzomib + Luminespib; first compound 0.003162 µM) | relative viability (Carfilzomib + Luminespib; first compound 0.01 µM) | relative viability (Carfilzomib + Luminespib; first compound 0.03162 µM) | relative viability (Carfilzomib + Luminespib; first compound 0.1 µM) | relative viability (Crizotinib + Palbociclib; first compound 0.01 µM) | relative viability (Crizotinib + Palbociclib; first compound 0.03162 µM) | relative viability (Crizotinib + Palbociclib; first compound 0.1 µM) | relative viability (Crizotinib + Palbociclib; first compound 0.3162 µM) | relative viability (Crizotinib + Palbociclib; first compound 1 µM)
201T | 0.803 | 0.848 | 0.871 | 0.845 | 0.893 | 0.992 | 1.07 | 1.1 | 1.09 | 1.02 | 0.999 | 1.15 | 1.07 | 1.02 | 0.915 | 0.336 | 0.375 | 0.329 | 0.384 | 0.344
A549 | 0.213 | 0.216 | 0.324 | 0.16 | 0.257 | 0.478 | 0.756 | 0.546 | 0.231 | 0.0396 |  |  |  |  |  |  |  |  |  | 
A-427 | 0.54 | 0.561 | 0.526 |  | 0.593 | 1.12 | 1.11 | 1.11 | 1.01 | 0.119 | 0.837 | 1.18 | 1.05 | 0.141 | 0.112 | 0.486 | 0.53 | 0.496 |  | 0.558
ABC-1 | 1.09 |  | 1.02 |  | 1.15 | 0.837 | 0.665 | 0.527 | 0.235 | 0.242 | 0.581 | 1.35 | 0.246 | 0.193 | 0.141 | 0.811 | 0.838 | 0.517 |  | 0.711
BEN | 0.687 | 0.61 | 0.761 | 0.632 | 0.647 | 0.968 | 1.21 | 0.965 | 0.865 | 0.392 | 0.287 | 0.528 | 0.258 | 0.248 | 0.175 | 0.528 | 0.504 | 0.464 | 0.47 | 0.489
CAL-12T |  |  |  |  |  | 0.836 | 0.923 | 0.876 | 0.57 | 0.112 | 0.486 | 0.29 | 0.478 | 0.16 | 0.141 | 0.369 | 0.577 | 0.341 | 0.295 | 0.369
COR-L23 | 0.346 | 0.463 | 0.454 | 0.386 | 0.392 | 0.939 | 1.05 | 0.867 | 0.0469 | 0.0604 | 0.665 | 0.681 | 0.557 | 0.0931 | 0.0743 | 0.289 | 0.269 | 0.298 | 0.256 | 0.328
COR-L 105 | 0.583 | 0.675 | 0.658 | 0.629 | 0.713 | 0.937 | 1.05 | 0.879 | 0.297 | 0.249 | 0.721 | 0.737 | 0.788 | 0.503 | 0.236 | 0.4 | 0.427 | 0.397 | 0.388 | 0.409
Calu-6 |  |  |  |  |  | 0.941 | 1.15 | 0.934 | 0.202 | 0.08 |  |  |  |  |  |  |  |  |  | 
ChaGo-K-1 | 0.485 | 0.488 | 0.528 | 0.463 | 0.536 |  |  |  |  |  | 0.581 | 0.747 | 0.587 | 0.523 | 0.171 | 0.917 | 0.92 | 0.971 | 0.908 | 0.98
EBC-1 |  |  |  |  |  | 0.87 | 0.989 | 0.735 | 0.0736 | 0.0886 |  |  |  |  |  |  |  |  |  | 
EKVX | 0.29 | 0.339 | 0.323 | 0.336 | 0.337 | 0.927 | 1.2 | 1.08 | 1.01 | 0.33 | 0.887 | 0.907 | 0.886 | 0.788 | 0.39 | 0.312 | 0.411 | 0.38 | 0.392 | 0.423
EMC-BAC-2 | 0.96 | 0.921 | 1.01 |  | 0.967 | 0.78 | 0.786 | 0.844 | 0.836 | 0.401 | 1.13 | 1.24 | 1.26 | 1.16 | 0.225 | 0.507 | 0.509 | 0.519 |  | 0.479
EPLC-272H | 0.339 | 0.375 | 0.366 |  | 0.436 | 1.04 | 1.32 | 1.16 | 0.193 | 0.0783 | 0.266 | 0.694 | 0.269 | 0.151 | 0.101 | 0.334 | 0.298 | 0.31 |  | 0.309
H3255 | 0.701 | 0.576 | 0.616 | 0.558 | 0.653 | 0.942 | 1.06 | 0.995 | 0.739 | 0.373 | 0.847 | 0.904 | 0.797 | 0.656 | 0.143 | 0.342 | 0.331 | 0.327 | 0.28 | 0.325
HARA | 0.489 | 0.524 | 0.514 | 0.4 | 0.531 | 0.89 | 1.03 | 1.07 | 0.0722 | 0.0537 | 0.871 | 0.576 | 0.615 | 0.051 | 0.0562 | 0.273 | 0.295 | 0.239 | 0.249 | 0.207
HCC-15 | 0.663 | 0.71 | 0.657 | 0.527 | 0.599 | 0.847 | 0.958 | 0.937 | 0.765 | 0.168 | 0.306 | 0.344 | 0.299 | 0.268 | 0.0676 | 0.665 | 0.719 | 0.7 | 0.655 | 0.627
HCC-44 | 0.959 | 0.943 |  | 0.844 | 0.915 | 0.592 | 0.75 | 0.673 | 0.487 | 0.174 | 1.01 | 1.15 | 0.955 | 0.471 | 0.212 | 0.939 | 0.964 | 1.01 | 0.94 | 0.969
HCC-78 | 0.754 | 0.759 | 0.669 | 0.593 | 0.661 | 0.554 | 0.585 | 0.545 | 0.385 | 0.214 |  |  |  |  |  | 0.431 | 0.537 | 0.545 |  | 0.513

Source: the supplement of paper PMC10307832
